# Results taken from patent publication US20230374103A1, “Wnt SIGNALING PATHWAY INHIBITOR” (OSAKA UNIVERSITY, priority 2020, published 2023).
# Residues, ends and D or L forms follow the SMILES beside them.
# Columns and labels:
# A549 cells [1] = assay: Proliferation assay (MTT) of A549 cells; format: cell-based, human
# Method: The influence RANKL peptide on the proliferation of A549 cells (human lung alveolar basal epithelial cells: high expression of both LGR4 and RSPO3 was confirmed) was examined. Specifically, the following procedure was performed. MHP1 was administered at 1 ng/ml to 100 μg/ml to A549 cells, and the cell viability was calculated by MTT assay after 40 hours.
# A549 cell xenograft = A549 cell xenograft model; format: in vivo, BALB/cAJcl-nu/nu; details: 600 μg/mouse every day, up to 49 days
# Method: The influence of RANKL peptide on cancer in an A549 cell xenograft model was examined. Specifically, the following procedure was performed. 2×10^6 cells were administered subcutaneously to BALB/cAJcl-nu/nu […]. After one day, 600 μg/mouse of MHP1 was administered every day, and the tumor size was measured up to 49 days. Further, the tumor weight was measured.
# [2] = test system: Wnt signaling activation by RSPO; assay: Wnt signaling inhibition test (β-catenin responsive element luciferase reporter); format: cell-based; details: HEK293 reporter cells; 50 ng/mL wnt3a + 20 ng/mL RSPO1/2/3; 24 hours; peptide tested MHP1-7 (FIG. 2)
# Method: HEK293 cells expressing luciferase under the control of β-catenin responsive element were plated on a 96 -well plastic plate (1×10^4 cells/well) and incubated in the presence or absence of 50 ng/mL of recombinant mouse wnt3a (R&D System, #1324-WN) and recombinant human RSPO1 (R&D System, #4645-RS), recombinant human RSPO2 (PeproTech, #120-43), or recombinant human RSPO3 (PeproTech, #120-44). When these were added at the same time as RANKL peptide, 50 ng/mL of recombinant mouse wnt3a and 20 ng/mL of RSPO1/2/3 were used. After incubation for 24 hours, luciferase activity was analyzed using a luciferase assay system (Promega) and a microplate luminometer (Centro XS3 LB960; Berthold Technologies). The protein concentration of each sample was measured using Takara Bradford Protein Assay Kit (Takara Bio Inc.). The results of luciferase activity were normalized to the protein concentration of each sample.
# [3] = test system: α-SMA and Colla1 expression (EMT); assay: Expression of α-SMA and Colla1 induced by TGF-β in MRC-5 cells (real-time RT-PCR); format: cell-based
# Method: The influence of RANKL peptide on the expression of α-SMA and Colla1 induced by TGF-β was examined. Specifically, the following procedure was performed. After pretreatment of MHP1 with MRC-5 cells for 24 hours, 2 ng/m/ of TGFβ was added, the cells were collected after 24 hours, and mRNA levels were determined by real-time RT-PCR.
# [4] = test system: bleomycin-induced scleroderma model; assay: Early administration test in bleomycin-induced scleroderma model; format: in vivo, C57BL6/J mice; details: 800 μg/mouse i.p. 5 days/week for 14 days in parallel with bleomycin
# Method: As test animals, C57BL6/J mice (female, 8 weeks old) were prepared. 200 μg/mouse of bleomycin was subcutaneously injected at a frequency of 5 days/week for 14 days, and in parallel with this, 800 μg/mouse of saline or RANKL peptide was intraperitoneally administered at a frequency of 5 days/week for 14 days. The body weight was measured periodically during the dosing period. The mice were sacrificed 14 days after the start of administration and the skin tissue of the bleomycin-administered portion was stained with Masson's trichrome to evaluate fibrosis. Further, the expression of collagen gene mRNA, which is a fibrosis index, in the skin was evaluated.
# [5] = test system: bleomycin-induced scleroderma model; assay: Late administration test in bleomycin-induced scleroderma model; format: in vivo, C57BL6/J mice; details: 800 μg/mouse i.p. 5 days/week for 14 days after 14 days of bleomycin
# Method: As test animals, C57BL6/J mice (female, 8 weeks were prepared. 200 μg/mouse of bleomycin was subcutaneously injected at a frequency of 5 days/week for 14 days. Subsequently, 800 μg/mouse of saline or RANKL peptide was intraperitoneally administered at a frequency of 5 days/week for 14 days. The nice were sacrificed after 14 days (28 days after the start of bleomycin administration), and the skin tissue of the bleomycin-administered portion was stained with Masson's trichrome to evaluate fibrosis. Further, the expression of collagen gene mRNA, which is a fibrosis index, in the skin was evaluated.
# [6] = test system: bleomycin-induced pulmonary fibrosis model; assay: Administration test in bleomycin-induced pulmonary fibrosis model; format: in vivo, C57BL6/J mice; details: 800 μg/mouse i.p. once, bleomycin intratracheally, 14 days
# Method: As test animals, C57BL6/J mice (female, 8 weeks old) were prepared. Saline or RANKL peptide (800 μg/mouse) was administered intraperitoneally, and immediately thereafter, saline or bleomycin (0.05 μg/mouse) was directly administered intratracheally. The mice were sacrificed 14 days after administration, the lung weight and body weight were measured, and the lung weight/body weight ratio was determined. In addition, the lung tissue, was stained with Masson's trichrome, and Masson's trichrome score evaluation (0: normal, 1: fibrotic lesions predominantly at the margin of the lung, 2: marginal or global multifocal fibrotic lesions, 3: fibrotic lesions in approximately ⅓ of the area, 4: fibrotic lesions accounting for ⅔ or more of the area) was performed based on the stained images. Further, the expression of fibrosis marker gene mRNA in lung tissue was evaluated.
# binding of LGR4 to RSPO1 = target: T1, binding of LGR4 to RSPO1 (Homo sapiens, UniProt Q9BXB1); assay: Competitive binding analysis of LGR4 and biotinylated RSPO1 (Flag-LGR4 transfected HEK293 cells, immunoprecipitation); details: 50 ng/mL biotinylated RSPO1, 2 hours, MHP1-7 (FIG. 4)
# T1 construct: host or cells: HEK293
# T1 sequence (Q9BXB1 25-951): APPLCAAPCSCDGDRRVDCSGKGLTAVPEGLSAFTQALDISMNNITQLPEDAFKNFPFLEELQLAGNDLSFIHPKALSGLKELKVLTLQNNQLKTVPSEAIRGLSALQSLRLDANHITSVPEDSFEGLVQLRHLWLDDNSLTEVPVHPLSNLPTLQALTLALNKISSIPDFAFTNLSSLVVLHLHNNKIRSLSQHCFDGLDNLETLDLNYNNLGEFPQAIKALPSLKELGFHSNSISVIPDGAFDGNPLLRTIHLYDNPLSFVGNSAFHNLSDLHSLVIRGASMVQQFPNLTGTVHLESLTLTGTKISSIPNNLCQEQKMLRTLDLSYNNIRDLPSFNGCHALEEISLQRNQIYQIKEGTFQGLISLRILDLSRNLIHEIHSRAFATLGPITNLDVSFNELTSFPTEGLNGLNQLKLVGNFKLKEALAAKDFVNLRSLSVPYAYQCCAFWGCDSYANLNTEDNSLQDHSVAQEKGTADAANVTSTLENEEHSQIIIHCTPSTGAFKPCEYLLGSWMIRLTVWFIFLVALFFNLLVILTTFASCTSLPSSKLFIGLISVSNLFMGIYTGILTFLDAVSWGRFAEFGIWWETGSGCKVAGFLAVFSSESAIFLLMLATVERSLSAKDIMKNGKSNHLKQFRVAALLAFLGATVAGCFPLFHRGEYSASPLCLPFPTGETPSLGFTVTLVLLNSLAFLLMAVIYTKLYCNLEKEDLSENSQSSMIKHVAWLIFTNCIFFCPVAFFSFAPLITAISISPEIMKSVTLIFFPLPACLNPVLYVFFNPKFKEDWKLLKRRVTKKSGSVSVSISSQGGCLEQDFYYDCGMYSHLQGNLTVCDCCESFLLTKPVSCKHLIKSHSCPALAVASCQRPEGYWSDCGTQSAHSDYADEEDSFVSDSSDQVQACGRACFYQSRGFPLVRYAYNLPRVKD
# Method: HEK293 cells were incubated with 100 μg/mL of RANKL peptide or biotinylated RANKL peptide for 30 minutes, followed by immunoprecipitation. For competitive binding analysis, HEK293 cells were transfected with a Flag-tagged LGR4 expression plasmid (OriGene Technologies) for 48 hours, and incubated for 2 hours in the presence of 50 ng/mL L of recombinant human biotinylated RSPO1 (R&D System, #BT4645) and RANKL peptide. For immunoprecipitation, the cells were washed twice with cold PBS and dissolved in a lysis buffer (50 mM Tris-HCL, pH 7.4, 150 mM NaCl, 5 mM EDTA, 0.5% NP40, 10% glycerol and protease inhibitor cocktail (Roche)). The sample was centrifuged at 16,000 g for 10 minutes. The supernatant was collected, and the protein concentration was determined. Immunoprecipitation from samples containing equal amounts of protein was performed at 4° C. overnight using high-capacity streptavidin agarose (Thermo Fisher Scientific or Anti-FLAG M2 Affinity Gel (Sigma-Aldrich), followed by washing twice with a lysis buffer, and elution with 2× Laemmli Sample Buffer at 37° C. for 30 minutes before Western blotting. The blotted membrane was incubated with the primary antibody at 4° C. overnight, washed with TBS containing 0.1% Tween-20, then incubated with the HRP-conjugated secondary antibody at room temperature for 1 hour, and then incubated with Chemi-Lumi One L (Nacalai Tesque). […]
# smad2/3 = smad2/3 activation induced by TGF-β in MRC-5 cells (WB); format: cell-based; details: 24 hours pretreatment, 5 ng/ml TGFβ, 10 minutes, MHP1-AcN (FIG. 17)
# Method: The influence of RANEL peptide on smad2/3 activation induced by TGF-β was examined. Specifically, the following procedure was performed. After pretreatment of MRC-5 cells with MHP1 for 24 hours, 5 ng/ml of TGFβ was added to the medium, the medium was collected after 10 minutes, and WB was performed.
# A549 cells [7] = assay: Migration/invasion assay of A549 cells (Boyden chamber / Matrigel Invasion chamber); format: cell-based, human
# Method: The influence of RANKL peptide on the migration and invasion of A549 cells was examined. Specifically, the following procedure was performed. A chamber of an 8-μm polycarbonate membrane filter (Neuro Probe) was installed in the upper compartment of a Boyden chamber (48-well Chamber, Neuro Probe), A549 cells were seeded in serum-free DMEM containing MHP1-AcN, and DMEM containing 10% FBS was placed in the lower compartment, followed by incubation at 37° C. for 15 hours. In the invasion assay, the upper compartment was Matrigel Invasion chamber (Corning Life Science). Similar A549 cells were seeded in serum-free medium containing MHP1-AcN, and DEM containing 10% FBS was placed in the lower compartment. Cells adhering to the upper surface of each upper compartment were detached, the lower surface was stained with Diff-Quick (Sysmex), and the number of cells was counted under a microscope.
# [8] = MRC-5 cells, 24 hours pretreatment, TGFβ 24 hours, 10, 30, 100 μg/ml MHP1-AcN (FIG. 19)
smiles,measurement,setting,value
CC[C@H](C)[C@H](NC(=O)[C@H](CO)NC(=O)[C@@H](NC(=O)[C@H](CCCCN)NC(=O)[C@@H](NC(=O)[C@@H](NC(=O)[C@H](Cc1ccc(O)cc1)NC(=O)[C@@H](NC(=O)[C@H](CCSC)NC(=O)[C@H](CC(C)C)NC(C)=O)C(C)C)C(C)C)C(C)C)[C@@H](C)O)C(=O)N[C@@H](CCCCN)C(=O)N[C@H](C(=O)N1CCC[C@H]1C(=O)N[C@@H](CO)C(=O)N[C@@H](CO)C(=O)N[C@@H](Cc1c[nH]cn1)C(=O)N[C@@H](CC(N)=O)C(=O)N[C@@H](CC(C)C)C(=O)N[C@@H](CCSC)C(=O)N[C@@H](CCCCN)C(=O)NCC(=O)NCC(=O)N[C@@H](CO)C(=O)N[C@H](C(=O)N[C@@H](CCCCN)C(=O)N[C@@H](CC(N)=O)C(=O)N[C@@H](Cc1c[nH]c2ccccc12)C(=O)N[C@@H](CO)C(=O)NCC(=O)N[C@@H](CC(N)=O)C(N)=O)[C@@H](C)O)[C@@H](C)CC [MHP1-7] (Ac-LMVYVVKTSIKIPSSHNLMKGGSTKNWSGN-NH2),"proliferation of lung cancer cells (cell viability, MTT)","A549 cells [1]; A549 cells, 1 ng/ml to 100 μg/ml, 40 hours, MHP1-AcN (FIG. 14)",inhibited
same,Wnt signaling pathway in A549 cells,A549 cells [1]; along with the inhibition of the proliferation,inhibited
same,influence on the degree of weight gain,A549 cell xenograft,not confirmed
same,growth of cancer (tumor volume),A549 cell xenograft; MHP1-AcN (FIG. 16),inhibited
same,Wnt signaling activation by RSPO (luciferase activity normalized to protein concentration),[2],inhibited
same,expression of Colla1 induced by TGF-β,[3]; [8],inhibited
same,expression of α-SMA (ACTA2) induced by TGF-β,[3]; [8],inhibited
same,EMT (epithelial-mesenchymal transition),[3]; concluded from α-SMA and Colla1 expression in MRC-5 cells,inhibited
same,"skin thickening and fibrosis (Masson's trichrome, dermis thickness)",[4]; MHP1-7 (FIG. 5),inhibited
same,expression of the collagen gene mRNA in skin,[4]; MHP1-7 (FIG. 6),inhibited
same,weight loss (body weight),[4]; MHP1-7 (FIG. 7),suppressed
same,"skin thickening and fibrosis (Masson's trichrome, dermis thickness)",[5]; MHP1-7 (FIG. 8),inhibited
same,"expression of the collagen gene mRNA (Colla1, Colla2) in skin","[5]; MHP1-7 (FIGS. 9, 10)",inhibited
same,lung weight gain,[6]; MHP1-7 (FIG. 11),suppressed
same,weight loss (body weight),[6]; MHP1-7 (FIG. 11),suppressed
same,expression of the fibrosis marker gene mRNA in lung tissue,[6]; MHP1-7 (FIG. 12),inhibited
same,lung tissue fibrosis (Masson's trichrome score),[6]; MHP1-7 (FIG. 13),inhibited
same,RSPO1 in the total cell lysate and the lysate immunoprecipitated with FLAG (Streptavidin-HRP),binding of LGR4 to RSPO1,reduced
same,binding of LGR4 to RSPO1,binding of LGR4 to RSPO1,inhibits
same,smad2/3 activation induced by TGF-β,smad2/3,inhibited
same,migration of lung cancer cells (number of cells),"A549 cells [7]; A549 cells, Boyden chamber, 15 hours, MHP1-AcN (FIG. 15)",inhibited
same,invasion of lung cancer cells (number of cells),"A549 cells [7]; A549 cells, Matrigel Invasion chamber, MHP1-AcN (FIG. 15)",inhibited
same,Wnt signaling pathway in A549 cells,A549 cells [7]; migration/invasion test,inhibited
